In one test the test system is gp120451. The test is described as follows: Dot blot of phage-displayed peptides incubated with gp120451, probed with defining mAbs or CD4 (FIG. 1, 4). It counts as binding, HIV-1. As for the experimental part:
Phages expressing the m1 peptide as protein fusions (m1) or not (fth1, as a negative control) were applied to nitrocellulose membranes as dots and incubated with or without gp120451. After washing, the filters were probed with either anti-gp120 mAb or the CG10 mAb as indicated and signals were developed by enhanced chemiluminescence (ECL)
Of the gp120-binding peptides isolated, one was particularly unique. […] As noted above, binding of CG10 to its epitope is absolutely dependent on the CD4i conformation of gp120. It was concluded that m1 binds to the CD4 binding site and acts as a CD4 mimetic, triggering a structural rearrangement locking gp120 into the CD4i conformation.
Because the CD4i conformation of gp120 can disrupt the integrity/accessibility of important neutralizing epitopes of gp120 [e.g. b12 (Xiang et al., 2002, supra)] the binding of a panel of neutralizing antibodies was tested.

A further test concerns gp120BaL. The test is described as follows: Dot blot of m2 phages with gp120BaL, probed with panel of defining mAbs (FIG. 8). It counts as binding, HIV-1. The text has this: Each dot was applied in duplicate.
A second measure of “improved peptide” characteristics is the ability to bind gp120s derived from other HIV-1 isolates. (m1 was developed using gp120451.) The preference was to identify a peptide that has the same type of effect on the BaL isolate of HIV-1 as does the m1-peptide for the 451 isolate.

Another test deals with gp120. The conditions noted are these: for Kd: quantitative ELISA, FIG. 7. In general terms: An ELISA detects its analyte on a solid surface through an enzyme-linked reagent.
The target of another test is CD4 (Homo sapiens, UniProt P01730). Description: Capture ELISA of m1 phages with CD4 alone (FIG. 2E). The following applies: CD4 without gp120. Type of test: binding.
The next test relates to gp120JR-FL. Description: Binding of peptides to gp120 of the JR-FL isolate. Also on record: species or system HIV-1.

“Also recorded” adds a separate entry of the source. Like-named read-outs stand apart in the source and are kept apart here.

Take CDRRDLPDWAIRAC [m2]: the “binding of CD4BS mAbs b12, b6 and m14 to peptide/gp120 complex” value in the test with gp120451 was “without interfering with b12, b6 or m14 binding”. Besides, the “induction of the CG10 epitope (CG10 mAb binding to peptide/gp120451 complex)” value in the test with gp120451 (phage-displayed peptide) is “induced CG10 binding”. Besides, in the test with gp120BaL, the “CD4 binding by peptide-captured gp120BaL” value is listed as “is able to bind CD4 itself”; the “induction of CD4i epitopes (CG10, 17b) in gp120BaL” value is “induces CD4i epitopes; also recorded: induces both the CG10 and 17b epitopes”; the “integrity of neutralizing / CD4BS epitopes (2G12, b12, b6, m14) in peptide-captured gp120BaL” value was “maintains the integrity of the CD4BS epitopes; also recorded: intact and available”. In addition, the “binding to gp120BaL” value with gp120BaL (phage-displayed peptide) is reported as “binds m2 peptide; also recorded: binds also to gp120BaL”. Besides, the “fold increase in binding / affinity for gp120 versus m1” value with gp120 (compared with m1) came to 10 fold. Also, on gp120 (read-out: KD for gp120 binding), the Kd was found to be 6.5 nM. Moreover, the Kd on gp120 (read-out: apparent affinity constant for gp120 binding) was 6.5 nM.

On to CDRRDLPQWAKREC [m1], for which, in the test on gp120451, the “binding of CD4BS mAbs b12, b6 and m14 to peptide/gp120 complex” value is listed as “bind the m1/gp120 complex very well; also recorded: without interfering with b12, b6 or m14 binding”; the “binding of CD4 to peptide/gp120 complex” value is given as “CD4 itself bound the m1/gp120 complex”. In the test with gp120451 (phage-displayed peptide), the “binding to gp120451” value is recorded as “specifically bind gp120; also recorded: binds gp120; also recorded: binds to gp120451” and the “induction of the CG10 epitope (CG10 mAb binding to peptide/gp120451 complex)” value was “elicit the CG10 epitope; also recorded: CG10 bound the complex; also recorded: induces the CG10 epitope; also recorded: induced CG10 binding”. Further, the “binding of peptide to CD4 alone” value at CD4 is given as “no affinity for CD4 alone; also recorded: CD4 does not bind m1”. In the test on gp120JR-FL, the “binding to gp120JR-FL” value was “not to gp120JR-FL”.

Source of the values: US8715684B2, “Peptides inducing a CD4i conformation in HIV gp120 while retaining vacant CD4 binding site” (priority 2007, dated 2014).
